Each block holds one molecule with its values, some of them ahead of it.
What was measured:
[1] = test system: R13.2 (DNA, aptamer) TGTACCGTCTGAGCGATTCGTACTGTGGGCACCAATCGTACCCAATACTTGCGAATCAGCCAGTCAGTGTTAAGGAGTGC; test: competitive elution of labelled DNA from bromacil beads, fluorescence; settings: 100 mM NaCl, 2 mM MgCl2, 20 mM Tris-HCl, 0.01% methanol, 1 μM free compound
[2] = test system: R13.2 (DNA, aptamer) TGTACCGTCTGAGCGATTCGTACTGTGGGCACCAATCGTACCCAATACTTGCGAATCAGCCAGTCAGTGTTAAGGAGTGC; test: fluorescence saturation binding on magnetic beads; settings: 100 mM NaCl, 2 mM MgCl2; immobilised compound (biotinylated bromacil on streptavidin beads); 20 mM Tris-HCl; 5 min

- binding ([1]; 0.28 ± 0.09 RFU against 0.51 for bromacil): weak
SMILES: Cn1ccc(=O)[nH]c1=O

SMILES: CCC(C)n1c(=O)[nH]c(C)c(Br)c1=O (stereo not shown)
- binding ([1]; 100 nM DNA, 0.51 ± 0.16 RFU (blank -0.0045)): yes
- Kd [2]: 9.6 ± 7.8 nM

- binding ([1]; 0.22 ± 0.15 RFU against 0.51 for bromacil): weak
SMILES: CCNc1nc(Cl)nc(NC(C)C)n1
